Experimental data published in paper PMC7822874, “Chemoprotective antimalarials identified through quantitative high-throughput screening of Plasmodium blood and liver stage parasites” (Scientific Reports, 2021).
Read-outs that look alike come from different tables or passages of the source.

Tests used:
[1] = system: P. berghei-ANKA-GFP-LucCON liver stage parasites in HepG2-A16-CD81EGFP cells; test: P. berghei liver stage Pb-Luc assay, Method 1 (UCSD, 1536-well); format: cell-based, Plasmodium berghei; conditions: Plasmodium berghei, 48 h; on Pb-Luc signal, 1 uM, repeat 1: reference of the scale not given here; on Pb-Luc signal, 1 uM, repeat 2: reference of the scale not given here; on Pb-Luc signal, 1 uM, repeat 3: reference of the scale not given here; on Pb-Luc signal, 3 uM, repeat 1: reference of the scale not given here; on Pb-Luc signal, 3 uM, repeat 2: reference of the scale not given here; on Pb-Luc signal, 3 uM, repeat 3: reference of the scale not given here
in vitro = conditions: human
[2] = system: Plasmodium falciparum Dd2 asexual blood stage parasites; test: microbe, parasite or virus in culture; design: species or system Plasmodium falciparum Dd2 in human erythrocytes; single determination (one 11-point concentration-response curve); conditions: Plasmodium falciparum, DD2, Erythrocyte, 72 h
[3] = read-out: Pb-Luc P. berghei liver stage signal, repeat 1
[4] = read-out: Pb-Luc P. berghei liver stage signal, repeat 2
[5] = read-out: Pb-Luc P. berghei liver stage signal, repeat 3
[6] = nominal 1 uM (10 mM stock), […] for 15 mM, 1.2 uM for 12 mM, 2 uM for 20 mM stock, average of 2 wells, 1536-well plate, repeat 1, read-out: Pb-Luc signal, 1 uM, repeat 1
[7] = nominal 1 uM (10 mM stock), […] for 15 mM, 1.2 uM for 12 mM, 2 uM for 20 mM stock, average of 2 wells, 1536-well plate, repeat 2, read-out: Pb-Luc signal, 1 uM, repeat 2
[8] = nominal 1 uM (10 mM stock), […] for 15 mM, 1.2 uM for 12 mM, 2 uM for 20 mM stock, average of 2 wells, 1536-well plate, repeat 3, read-out: Pb-Luc signal, 1 uM, repeat 3
[9] = nominal 3 uM (10 mM stock), 4.5 uM for 15 mM, 3.6 uM for 12 mM, 6 uM for 20 mM stock, average of 2 wells, 1536-well plate, repeat 1, read-out: Pb-Luc signal, 3 uM, repeat 1
[10] = nominal 3 uM (10 mM stock), 4.5 uM for 15 mM, 3.6 uM for 12 mM, 6 uM for 20 mM stock, average of 2 wells, 1536-well plate, repeat 2, read-out: Pb-Luc signal, 3 uM, repeat 2
[11] = nominal 3 uM (10 mM stock), 4.5 uM for 15 mM, 3.6 uM for 12 mM, 6 uM for 20 mM stock, average of 2 wells, 1536-well plate, repeat 3, read-out: Pb-Luc signal, 3 uM, repeat 3
[12] = HepG2-A16-CD81EGFP cells, uninfected
[13] = nominal 1 uM (10 mM stock), […] for 15 mM, 1.2 uM for 12 mM, 2 uM for 20 mM stock, average of 2 wells, repeat 2
[14] = nominal 3 uM (10 mM stock), 4.5 uM for 15 mM, 3.6 uM for 12 mM, 6 uM for 20 mM stock, average of 2 wells, repeat 2

SMILES	activity at 1 µM [1, 6] [%]	activity at 1 µM [1, 7] [%]	activity at 1 µM [1, 8] [%]	activity at 3 µM [1, 9] [%]	activity at 3 µM [1, 10] [%]	activity at 3 µM [1, 11] [%]	viability at 48 h, 1 µM (in vitro; [12]) [%]	viability at 48 h, 3 µM (in vitro; [12]) [%]	AC50 ([2]; read-out: AC50) [µM]	HepG2 viability signal, 1 uM, repeat 2 (HepG2-A16-CD81EGFP cells; [13]) [%]	HepG2 viability signal, 3 uM, repeat 2 (HepG2-A16-CD81EGFP cells; [14]) [%]	further results
Cc1ccc(O)c([C@H](CCN(C(C)C)C(C)C)c2ccccc2)c1 [NCGC00159519-02]	–	–	–	–	–	–	–	–	–	–	–	activity at 1 µM [1, 3]: 106%; activity at 3 µM [1, 3]: 74.9%; activity at 1 µM [1, 4]: 80%; activity at 3 µM [1, 4]: 85.4%; activity at 1 µM [1, 5]: 106%; activity at 3 µM [1, 5]: 89%; viability (in vitro): 103%; AC50 [2]: 4.22 µM; HepG2 viability, fourth HepG2 column (HepG2-A16-CD81EGFP cells; human): 99.21%; HepG2 viability, second HepG2 column (HepG2-A16-CD81EGFP cells; human): 104.09%; HepG2 viability, third HepG2 column (HepG2-A16-CD81EGFP cells; human): 100.98%
CC(C)C(=O)N1Cc2ccccc2CC2(CCCN(CC3CCCCC3)C2)C1 (stereo not shown) [NCGC00377456-01]	94.7	96.1	116	81.5	98	85.1	100	105	0.0531	102.51	104.36	–
COc1ccc2[nH]c(C[C@@H]3C[C@@H](C(C)C)[C@H](CNCc4ccccc4OC)C=C3C)nc2c1 [NCGC00392082-01]	67	80.5	77.5	48.5	52	40.1	99	97.1	9.44	98.07	97.57	–
COc1ccc(-c2cc([C@H]3CN4CC[C@H]3C[C@@H]4CN[S+](=O)([O-])c3ccc(Cl)cc3)n(C)n2)cc1OC [NCGC00399828-01]	68.5	88.1	52.2	40.7	77	89.6	–	–	2.99	–	–	viability at 48 h, 1 µM (in vitro): 98.9%; viability at 48 h, 3 µM (in vitro): 99.9%; HepG2 viability signal, 1 uM, repeat 2 (HepG2-A16-CD81EGFP cells; human, 48 h, 1 µM): 102.24%; HepG2 viability signal, 3 uM, repeat 2 (HepG2-A16-CD81EGFP cells; human, 48 h, 3 µM): 102.23%
O[C@H]1CC[C@@H](Cc2cc(-c3ccc(F)cc3)on2)O[C@@H]1CNC1CCCCC1 [NCGC00401034-01]	123	102	154	112	106	134	104	107	2.43	105.13	100.53	–
COC(=O)c1ccc2[nH]c(C[C@@H]3C[C@@H](C(C)C)[C@H](CNC4CCCCC4)C=C3C)nc2c1 [NCGC00401987-01]	81.1	132	98.9	56.8	65	83.4	99.2	102	8.41	103.84	105.05	–
c1ccc(Nc2cc3c(cn2)CN(Cc2ccc4[nH]ccc4c2)CCN3)cc1 [NCGC00411105-01]	55.9	72.5	17.8	23.8	30.2	10.7	40.4	43.5	1.37	44.56	55.41	–
Oc1ccccc1-c1cc(-c2cccnc2)c2cncn2c1 [NCGC00412170-01]	103	117	108	100	122	76.4	98.3	101	1.72	95.01	100.05	–
COc1cc2c(cc1OCc1ccccc1)N(C(=O)c1cc3ccccc3[nH]1)CC21CCN(C)CC1 [NCGC00419851-01]	59.5	89.6	74.1	16.8	54.6	95.7	–	–	0.944	–	–	viability at 48 h, 1 µM (in vitro): 99%; viability at 48 h, 3 µM (in vitro): 98.9%; HepG2 viability signal, 1 uM, repeat 2 (HepG2-A16-CD81EGFP cells; human, 48 h, 1 µM): 101.97%; HepG2 viability signal, 3 uM, repeat 2 (HepG2-A16-CD81EGFP cells; human, 48 h, 3 µM): 102.28%
CC1=C[C@@H](CN(C)C)[C@H](C(C)C)C[C@H]1Cc1nc2ncc(Cl)cc2[nH]1 [NCGC00421128-01]	85.6	76	112	59.7	57.2	82.1	106	108	21.7	100.56	100.80	–
CCC(CC)c1cc([C@H]2CN3CC[C@H]2C[C@@H]3CN[S+](=O)([O-])c2ccccc2C#N)nc(-c2ccncc2)n1 [NCGC00421343-01]	72	78.5	103	49	52	66.9	–	–	1.5	–	–	viability at 48 h, 1 µM (in vitro): 110%; viability at 48 h, 3 µM (in vitro): 110%; HepG2 viability signal, 1 uM, repeat 2 (HepG2-A16-CD81EGFP cells; human, 48 h, 1 µM): 105.19%; HepG2 viability signal, 3 uM, repeat 2 (HepG2-A16-CD81EGFP cells; human, 48 h, 3 µM): 104.55%
COc1cc(C(=O)NC2CCCc3c2[nH]c2c(Cl)cccc32)cc(OC)c1OC (stereo not shown) [NCGC00424034-01]	122	161	165	157	165	156	101	98.2	2.11	98.86	98.35	–
O=C(Nc1ccc2c(N3CCCC3)ncnc2c1)c1cccc(Br)c1 [NCGC00425495-01]	70.5	86.1	85.5	34.5	39.4	21.9	101	97.5	0.668	101.29	98.07	–
O=C(Nc1ccc2c(N3CCCC3)ncnc2c1)c1cccc(F)c1 [NCGC00425501-01]	97.2	101	106	56.8	72.2	29.3	98.5	94.4	4.73	97.92	95.12	–
O=C(Nc1ccc2c(N3CCOCC3)ncnc2c1)c1ccc(Br)o1 [NCGC00425547-01]	126	99.1	129	123	89.4	131	110	106	2.66	103.01	102.12	–
CCN(Cc1ccccc1)C(=O)CCC[C@@H]1[C@H]2CCCN3CCC[C@@H](CN1C(=O)c1ccccc1)[C@@H]23 [NCGC00429496-01]	107	115	85.5	89.3	121	99.6	93.4	93.8	13.3	99.16	100.31	–
CCOC(=O)C1(Cc2ccccc2Cl)CCNCC1 [NCGC00430911-01]	78.1	97.3	89.2	74.5	106	93.5	94.6	94.7	2.66	100.98	101.65	–
